Measured values as given in the Kinase Knowledgebase extract (Sharma et al. 2016).
pIC50: −log10 of the molar value.

Molecular target: PIK3CA (human) (UniProt P42336)
Test: Assessment of PIK3CA Kinase Activity

Sequence of PIK3CA (human) (P42336 whole entry, looked up): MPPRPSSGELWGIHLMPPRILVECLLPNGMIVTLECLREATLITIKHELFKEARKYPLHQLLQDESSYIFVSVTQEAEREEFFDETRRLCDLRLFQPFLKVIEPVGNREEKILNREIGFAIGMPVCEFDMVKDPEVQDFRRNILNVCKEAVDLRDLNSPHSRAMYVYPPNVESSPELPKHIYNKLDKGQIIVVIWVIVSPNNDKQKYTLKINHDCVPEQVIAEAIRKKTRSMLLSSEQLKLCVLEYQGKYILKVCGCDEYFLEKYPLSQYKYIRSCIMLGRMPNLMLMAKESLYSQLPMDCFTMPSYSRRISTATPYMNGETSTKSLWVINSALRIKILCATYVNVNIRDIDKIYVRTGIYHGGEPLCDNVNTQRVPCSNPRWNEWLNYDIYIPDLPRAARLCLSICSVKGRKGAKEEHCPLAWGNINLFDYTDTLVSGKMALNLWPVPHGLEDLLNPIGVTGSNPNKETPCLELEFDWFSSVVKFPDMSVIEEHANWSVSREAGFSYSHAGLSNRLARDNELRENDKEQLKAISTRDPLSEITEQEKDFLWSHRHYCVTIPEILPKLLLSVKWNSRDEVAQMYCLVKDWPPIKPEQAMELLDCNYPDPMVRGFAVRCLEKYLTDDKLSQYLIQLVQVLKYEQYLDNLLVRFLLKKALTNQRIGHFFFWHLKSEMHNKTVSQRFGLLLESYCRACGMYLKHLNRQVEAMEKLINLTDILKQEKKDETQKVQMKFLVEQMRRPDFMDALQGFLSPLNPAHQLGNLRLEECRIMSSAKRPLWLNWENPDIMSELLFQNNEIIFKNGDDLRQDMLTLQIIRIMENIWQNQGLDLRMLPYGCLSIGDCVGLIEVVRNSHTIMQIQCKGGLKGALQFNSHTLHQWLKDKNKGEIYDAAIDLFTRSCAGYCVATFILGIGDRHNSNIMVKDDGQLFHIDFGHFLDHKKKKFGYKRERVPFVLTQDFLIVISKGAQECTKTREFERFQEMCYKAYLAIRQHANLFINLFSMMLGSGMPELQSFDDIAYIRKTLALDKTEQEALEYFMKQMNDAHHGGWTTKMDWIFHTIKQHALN

## COC(=O)Cc1c(C)nc(CN(C)C)nc1N1CCOc2ccc(-c3ccc4nc(C)[nH]c4c3)cc2C1
  pIC50: ≥ 7.00

## Cc1nc2cc(-c3ccc4c(c3)CN(c3nc(NCCN(C)C)nc(C)c3Cc3ccc(F)cc3)CCO4)ccc2[nH]1
  pIC50: ≥ 7.00

## CC(=O)NCc1nc2c(c(N3CCOc4ccc(-c5ccc6[nH]c(C)nc6c5)cc4C3)n1)CC(C)(C)CC2
  pIC50: ≥ 7.00

## Cc1nc2cc(-c3ccc4c(c3)CN(c3nc(CN(C)C)nc(C)c3CCCF)CCO4)ccc2[nH]1
  pIC50: ≥ 7.00

## Cc1nc2cc(-c3ccc4c(c3)CN(c3nc(N)nc(C)c3C(C)C)CCO4)cnc2[nH]1
  pIC50: ≥ 7.00

## CC1(C)CCc2nc(N)nc(N3CCOc4ccc(-c5cnc6[nH]cnc6c5)cc4C3)c2C1
  pIC50: ≥ 7.00

## Cc1nc2cc(-c3ccc4c(c3)CN(c3nc(CN(C)C)nc(C)c3Br)CCO4)ccc2[nH]1
  pIC50: ≥ 7.00

## Cc1nc2cc(-c3ccc4c(c3)CN(c3nc(NC5CNC5)nc(C)c3Cc3ccc(F)cc3)CCO4)ccc2[nH]1
  pIC50: ≥ 7.00

## Cc1nc(N)nc(N2CCOc3ccc(-c4cnc5[nH]cnc5c4)cc3C2)c1C(C)C
  pIC50: ≥ 7.00

## Cc1nc2ccc(-c3ccc4c(c3)CN(c3nc(CN(C)C)nc(C)c3C)CCO4)cc2[nH]1
  pIC50: ≥ 7.00

## Cc1nc2ncc(-c3ccc4c(c3)CN(c3nc(N)nc5c3CC(C)(C)CC5)CCO4)cc2[nH]1
  pIC50: ≥ 7.00

## COc1ccc2c(N3CCOc4ccc(-c5ccc6[nH]c(C)nc6c5)cc4C3)nc(CN(C)C)nc2c1
  pIC50: ≥ 7.00

## Cc1nc2cc(-c3ccc4c(c3)CN(c3nc(CN(C)C)nc(C)c3-c3ccccc3)CCO4)ccc2[nH]1
  pIC50: 6.30 to 7.00

## Cc1nc2cc(-c3ccc4c(c3)CN(c3nc(N)nc(C)c3Cc3ccc(F)cc3)CCO4)ccc2[nH]1
  pIC50: ≥ 7.00

## CCCc1c(C)nc(CN(C)C)nc1N1CCOc2ccc(-c3ccc4nc(C)[nH]c4c3)cc2C1
  pIC50: ≥ 7.00

## Cc1nc2cc(-c3ccc4c(c3)CN(c3nc(C(C)N)nc5c3CC(C)(C)CC5)CCO4)ccc2[nH]1 (stereo not given)
  pIC50: ≥ 7.00

## COc1ccc(-c2ccc3c(c2)CN(c2nc(CN(C)C)nc4c2CC(C)(C)CC4)CCO3)cc1OC(F)F
  pIC50: ≥ 7.00

## Cc1nc2cc(-c3ccc4c(c3)CN(c3nc(NCCCN(C)C)nc(C)c3Cc3ccc(F)cc3)CCO4)ccc2[nH]1
  pIC50: 6.30 to 7.00

## COc1ccc(-c2ccc3c(c2)CN(c2nc(CN(C)C)nc(C)c2C(C)C)CCO3)cc1NS(C)(=O)=O
  pIC50: ≥ 7.00

## Cc1nc2cc(-c3ccc4c(c3)CN(c3nc(N)nc(C)c3Cc3ccc(F)cc3)CCO4)cnc2[nH]1
  pIC50: ≥ 7.00

## Cc1nc(N)nc(N2CCOc3ccc(-c4ccc5[nH]cnc5c4)cc3C2)c1C(C)C
  pIC50: ≥ 7.00

## C=CCc1c(C)nc(N)nc1N1CCOc2ccc(-c3ccc4nc(C)[nH]c4c3)cc2C1
  pIC50: ≥ 7.00

## COc1ccc2c(N3CCOc4ccc(-c5ccc6[nH]cnc6c5)cc4C3)nc(CN(C)C)nc2c1
  pIC50: ≥ 7.00

## CC(=O)OCc1nc(C)c(C(C)C)c(N2CCOc3ccc(-c4ccc5nc(C)[nH]c5c4)cc3C2)n1
  pIC50: ≥ 7.00

## COCCOc1cc(-c2ccc3c(c2)CN(c2nc(CN(C)C)nc4c2CC(C)(C)CC4)CCO3)ccc1OC
  pIC50: ≥ 7.00

## Cc1nc2cc(-c3ccc4c(c3)CN(c3nc(CF)nc5c3CC(C)(C)CC5)CCO4)ccc2[nH]1
  pIC50: ≥ 7.00

## COc1ccc(-c2ccc3c(c2)CN(c2nc(CN(C)C)nc4c2CC(C)(C)CC4)CCO3)cc1S(C)(=O)=O
  pIC50: ≥ 7.00

## COCCc1c(C)nc(CN(C)C)nc1N1CCOc2ccc(-c3ccc4nc(C)[nH]c4c3)cc2C1
  pIC50: ≥ 7.00

## Cc1nc2cc(-c3ccc4c(c3)CN(c3nc(NC5CNC5)nc(C)c3C(C)C)CCO4)ccc2[nH]1
  pIC50: ≥ 7.00

## C=CCc1c(C)nc(CN(C)C)nc1N1CCOc2ccc(-c3ccc4nc(C)[nH]c4c3)cc2C1
  pIC50: ≥ 7.00

## CCNc1nc(C)c(Cc2ccc(F)cc2)c(N2CCOc3ccc(-c4ccc5[nH]c(C)nc5c4)cc3C2)n1
  pIC50: 6.30 to 7.00

## Cc1nc2ccc(-c3cc(F)c4c(c3)CN(c3nc(N)nc(C)c3C(C)C)CCO4)cc2[nH]1
  pIC50: ≥ 7.00

## COC(=O)Nc1nc2cc(-c3ccc4c(c3)CN(c3nc(N)nc(C)c3C(C)C)CCO4)ccc2[nH]1
  pIC50: ≥ 7.00

## Cc1nc2cc(-c3ccc4c(c3)CN(c3nc(CN(C)C)nc(C)c3CC(C)C)CCO4)ccc2[nH]1
  pIC50: 6.30 to 7.00

## Cc1nc2cc(-c3ccc4c(c3)CN(c3nc(CNCCF)nc(C)c3C(C)C)CCO4)ccc2[nH]1
  pIC50: ≥ 7.00

## Cc1nc(N)nc(N2CCOc3ccc(-c4cnc5[nH]c(N)nc5c4)cc3C2)c1C(C)C
  pIC50: ≥ 7.00

## Cc1nc2cc(-c3ccc4c(c3)CN(c3cc(N)ncc3C#N)CCO4)ccc2[nH]1
  pIC50: ≥ 7.00

## Cc1nc(N)nc(N2CCOc3ccc(-c4ccc5[nH]cnc5c4)cc3C2)c1Cc1ccc(F)cc1
  pIC50: ≥ 7.00

## Cc1nc2cc(-c3ccc4c(c3)CN(c3nc(CN5CCCC5)nc(C)c3C(C)C)CCO4)ccc2[nH]1
  pIC50: ≥ 7.00

## Cc1nc2cc(-c3ccc4c(c3)CN(c3nc(N)nc(C)c3C(C)C)CCO4)ccc2[nH]1
  pIC50: ≥ 7.00

## CC1(C)CCc2nc(N)nc(N3CCOc4ccc(-c5ccc6[nH]cnc6c5)cc4C3)c2C1
  pIC50: ≥ 7.00

## CCNc1nc2cc(-c3ccc4c(c3)CN(c3nc(N)nc(C)c3C(C)C)CCO4)ccc2[nH]1
  pIC50: ≥ 7.00

## Cc1nc2cc(-c3ccc4c(c3)CN(c3nc(CN(C)C)nc(C)c3Cl)CCO4)ccc2[nH]1
  pIC50: 6.30 to 7.00

## COc1ccc(-c2ccc3c(c2)CN(c2nc(CN(C)C)nc4c2CC(C)(C)CC4)CCO3)cc1C(C)=O
  pIC50: 6.30 to 7.00

## Cc1nc2ccc(-c3ccc4c(c3)CN(c3nc(CO)nc(C)c3C(C)C)CCO4)cc2[nH]1
  pIC50: ≥ 7.00

## COc1ccc2c(N3CCOc4ccc(-c5cnc6[nH]cnc6c5)cc4C3)nc(CN(C)C)nc2c1
  pIC50: ≥ 7.00

## CCN(CC)Cc1nc(C)c(C(C)C)c(N2CCOc3ccc(-c4ccc5nc(C)[nH]c5c4)cc3C2)n1
  pIC50: ≥ 7.00

## COc1ccc(-c2ccc3c(c2)CN(c2nc(N)nc(C)c2C(C)C)CCO3)cc1NS(C)(=O)=O
  pIC50: 6.30 to 7.00

## Cc1nc2cc(-c3ccc4c(c3)CN(c3nc(N)nc5c3CC(C)(C)CC5)CCO4)ccc2[nH]1
  pIC50: ≥ 7.00

## Cc1nc(N)nc(N2CCOc3ccc(-c4cnc5[nH]cnc5c4)cc3C2)c1Cc1ccc(F)cc1
  pIC50: ≥ 7.00
